Our source for the IC50 values is patent US20260070945A1, “MACROCYCLIC IMMUNOMODULATORS” (Bristol-Myers Squibb Company, priority 2022, published 2026).

Where a SMILES comes first, the peptide text is derived from it. Bridges are numbered along the chain shown (N, C = ends). [ ]: non-standard residue; d: D form. The star is where a group is joined. Phe(4-COOH) = N[C@@H](Cc1ccc(C(=O)O)cc1)C(=O)O; Bip = N[C@@H](Cc1ccc(-c2ccccc2)cc1)C(=O)O; 4Pal = N[C@@H](Cc1ccncc1)C(=O)O; Aad = N[C@@H](CCCC(=O)O)C(=O)O; Cha = N[C@@H](CC1CCCCC1)C(=O)O; Cit = NC(=O)NCCC[C@H](N)C(=O)O; 12Ado = NCCCCCCCCCCCC(=O)O; Carboxymethyl = O=C(O)C*; NMeA = CN[C@@H](C)C(=O)O; Orn = NCCC[C@H](N)C(=O)O; Aun = NCCCCCCCCCCC(=O)O; Dab = NCC[C@H](N)C(=O)O; Dap = NC[C@H](N)C(=O)O; AEEA = NCCOCCOCC(=O)O

T1 sequence (Q15116 25-288): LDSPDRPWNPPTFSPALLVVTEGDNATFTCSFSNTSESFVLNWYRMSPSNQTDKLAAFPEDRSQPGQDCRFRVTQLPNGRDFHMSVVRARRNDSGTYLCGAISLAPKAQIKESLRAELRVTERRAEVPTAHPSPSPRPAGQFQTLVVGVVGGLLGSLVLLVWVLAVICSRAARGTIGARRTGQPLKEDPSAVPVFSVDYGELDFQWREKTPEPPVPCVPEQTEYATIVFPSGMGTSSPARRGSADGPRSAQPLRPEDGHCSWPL

This assay concerns the target T1, PD-1/PD-L1 interaction (PE-labeled human PD-L1-Ig binding to Jurkat cell line over-expressing human PD-1) (Homo sapiens, UniProt Q15116).
T1 construct: expressed in transfected cells; host or cells: Jurkat
Briefly: Jurkat-PD-1 Cell Binding High-Content Screening Assay (CBA). Conditions: Jurkat-hPD-1 cells, PE-labeled PD-L1-Ig 20 nM final; read-out: Jurkat HPD1 PDL1 IC50. The method in brief: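 Read-out: high-content imaging of cell-bound PE fluorescence, with Hoechst 33342 nuclear counterstain after paraformaldehyde fixation. Before labeled ligand (20 nM final, 1 h) was added, compound sat on the cells for 2 h at 37 °C in DMEM/10% FCS.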
In the case of `CC(C)C[C@@H]1NC(=O)[C@H](Cc2c[nH]c3ccccc23)NC(=O)[C@H](CC(=O)O)NC(=O)[C@H](Cc2ccc(C(=O)O)cc2)NC(=O)[C@H](Cc2ccc(OCC(=O)O)cc2)NC(=O)CSC[C@@H](C(=O)N[C@@H](CCCN)C(=O)NCCOCCOCC(=O)NCCCCCCCCCCC(=O)O)NC(=O)[C@H](CCN)NC(=O)[C@H](C(C)C)NC(=O)[C@H](CC2CCCCC2)NC(=O)[C@H](CCN)NC(=O)[C@@H](CC(C)C)NC(=O)[C@H](C)N(C)C(=O)[C@H](C(C)C)NC(=O)[C@H](Cc2ccc(-c3ccccc3)cc2)NC1=O` [Example 2150] ({CH2CO}-Y(Carboxymethyl)[Phe(4-COOH)]DWL[Bip]V[NMeA][dL][Dab][Cha]V[Dab]C[Orn][AEEA][Aun]-OH; thioether N-14), the concentration for half-maximal inhibition (IC50) is 14.1 nM.
Take `CC(C)C[C@@H]1NC(=O)[C@H](Cc2c[nH]c3ccccc23)NC(=O)[C@H](CC(=O)O)NC(=O)[C@H](Cc2ccc(C(=O)O)cc2)NC(=O)[C@H](Cc2ccc(OCC(=O)O)cc2)NC(=O)CSC[C@@H](C(=O)N[C@@H](CCCN)C(=O)NCCOCCOCC(=O)NCCCCCCCCCCC(=O)O)NC(=O)[C@H](CCCCN)NC(=O)[C@H](C(C)C)NC(=O)[C@H](CC2CCCCC2)NC(=O)[C@H](CCN)NC(=O)[C@@H](CC(C)C)NC(=O)[C@H](C)N(C)C(=O)[C@H](C(C)C)NC(=O)[C@H](Cc2ccc(-c3ccccc3)cc2)NC1=O` [Example 2151] ({CH2CO}-Y(Carboxymethyl)[Phe(4-COOH)]DWL[Bip]V[NMeA][dL][Dab][Cha]VKC[Orn][AEEA][Aun]-OH; thioether N-14): the IC50 was 8.5 nM.
Turning to `CC(C)C[C@@H]1NC(=O)[C@H](Cc2c[nH]c3ccccc23)NC(=O)[C@H](CC(=O)O)NC(=O)[C@H](Cc2ccc(C(=O)O)cc2)NC(=O)[C@H](Cc2ccc(OCC(=O)O)cc2)NC(=O)CSC[C@@H](C(=O)N[C@@H](CCCN)C(=O)NCCOCCOCC(=O)NCCCCCCCCCCC(=O)O)NC(=O)[C@H](CCCCN)NC(=O)[C@H](C(C)C)NC(=O)[C@H](CC2CCCCC2)NC(=O)[C@H](CCCC(=O)O)NC(=O)[C@@H](CC(C)C)NC(=O)[C@H](C)N(C)C(=O)[C@H](C(C)C)NC(=O)[C@H](Cc2ccc(-c3ccccc3)cc2)NC1=O` [Example 2152] ({CH2CO}-Y(Carboxymethyl)[Phe(4-COOH)]DWL[Bip]V[NMeA][dL][Aad][Cha]VKC[Orn][AEEA][Aun]-OH; thioether N-14), the IC50 turned out to be 19.9 nM.
In the case of `CC(C)C[C@@H]1NC(=O)[C@H](Cc2c[nH]c3ccccc23)NC(=O)[C@H](CC(=O)O)NC(=O)[C@H](Cc2ccc(C(=O)O)cc2)NC(=O)[C@H](Cc2ccc(OCC(=O)O)cc2)NC(=O)CSC[C@@H](C(=O)N[C@@H](CCCN)C(=O)NCCOCCOCC(=O)NCCCCCCCCCCC(=O)O)NC(=O)[C@H](CCCC(=O)O)NC(=O)[C@H](C(C)C)NC(=O)[C@H](CC2CCCCC2)NC(=O)[C@H](CCN)NC(=O)[C@@H](CC(C)C)NC(=O)[C@H](C)N(C)C(=O)[C@H](C(C)C)NC(=O)[C@H](Cc2ccc(-c3ccccc3)cc2)NC1=O` [Example 2153] ({CH2CO}-Y(Carboxymethyl)[Phe(4-COOH)]DWL[Bip]V[NMeA][dL][Dab][Cha]V[Aad]C[Orn][AEEA][Aun]-OH; thioether N-14) it was 16.7 nM; in that of `CC(C)C[C@@H]1NC(=O)[C@H](Cc2c[nH]c3ccccc23)NC(=O)[C@H](CC(=O)O)NC(=O)[C@H](Cc2ccc(OCC(=O)O)cc2)NC(=O)[C@H](Cc2ccc(OCC(=O)O)cc2)NC(=O)CSC[C@@H](C(=O)N[C@@H](CCCCN)C(=O)NCCOCCOCC(=O)NCCCCCCCCCCC(=O)O)NC(=O)[C@H](CN)NC(=O)[C@H](C(C)C)NC(=O)[C@H](CC2CCCCC2)NC(=O)[C@H](CCN)NC(=O)[C@@H](CC(C)C)NC(=O)[C@H](C)N(C)C(=O)[C@H](C(C)C)NC(=O)[C@H](Cc2ccc(-c3ccccc3)cc2)NC1=O` [Example 2154] ({CH2CO}-Y(Carboxymethyl)Y(Carboxymethyl)DWL[Bip]V[NMeA][dL][Dab][Cha]V[Dap]CK[AEEA][Aun]-OH; thioether N-14), 11 nM.
Take `CC(C)C[C@@H]1NC(=O)[C@H](Cc2c[nH]c3ccccc23)NC(=O)[C@H](CC(=O)O)NC(=O)[C@H](Cc2ccc(C(=O)O)cc2)NC(=O)[C@H](Cc2ccc(OCC(=O)O)cc2)NC(=O)CSC[C@@H](C(=O)NCCOCCOCC(=O)N[C@@H](CCN)C(=O)NCCCCCCCCCCC(=O)O)NC(=O)[C@H](CCCCN)NC(=O)[C@H](C(C)C)NC(=O)[C@H](CC2CCCCC2)NC(=O)[C@H](CCN)NC(=O)[C@@H](CC(C)C)NC(=O)[C@H](C)N(C)C(=O)[C@H](C(C)C)NC(=O)[C@H](Cc2ccc(-c3ccccc3)cc2)NC1=O` [Example 2155] ({CH2CO}-Y(Carboxymethyl)[Phe(4-COOH)]DWL[Bip]V[NMeA][dL][Dab][Cha]VKC[AEEA][Dab][Aun]-OH; thioether N-14): the IC50 was 6.6 nM.
Turning to `CC(C)C[C@@H]1NC(=O)[C@H](Cc2c[nH]c3ccccc23)NC(=O)[C@H](CC(=O)O)NC(=O)[C@H](Cc2ccc(C(=O)O)cc2)NC(=O)[C@H](Cc2ccc(OCC(=O)O)cc2)NC(=O)CSC[C@@H](C(=O)NCCOCCOCC(=O)N[C@@H](CCN)C(=O)NCCCCCCCCCCC(=O)O)NC(=O)[C@H](CCCNC(N)=O)NC(=O)[C@H](C(C)C)NC(=O)[C@H](CC2CCCCC2)NC(=O)[C@H](CCN)NC(=O)[C@@H](CC(C)C)NC(=O)[C@H](C)N(C)C(=O)[C@H](C(C)C)NC(=O)[C@H](Cc2ccc(-c3ccccc3)cc2)NC1=O` [Example 2156] ({CH2CO}-Y(Carboxymethyl)[Phe(4-COOH)]DWL[Bip]V[NMeA][dL][Dab][Cha]V[Cit]C[AEEA][Dab][Aun]-OH; thioether N-14), the IC50 was 16.5 nM.
As for `CC(C)C[C@@H]1NC(=O)[C@H](Cc2c[nH]c3ccccc23)NC(=O)[C@H](CC(=O)O)NC(=O)[C@H](Cc2ccc(OCC(=O)O)cc2)NC(=O)[C@H](Cc2ccc(OCC(=O)O)cc2)NC(=O)CSC[C@@H](C(=O)N[C@@H](CCCCN)C(=O)NCCCCCCCCCCC(=O)O)NC(=O)[C@H](CCCN)NC(=O)[C@H](C(C)C)NC(=O)[C@H](CC2CCCCC2)NC(=O)[C@H](CCN)NC(=O)[C@@H](CC(C)C)NC(=O)[C@H](C)N(C)C(=O)[C@H](C(C)C)NC(=O)[C@H](Cc2ccc(-c3ccccc3)cc2)NC1=O` [Example 2157] ({CH2CO}-Y(Carboxymethyl)Y(Carboxymethyl)DWL[Bip]V[NMeA][dL][Dab][Cha]V[Orn]CK[Aun]-OH; thioether N-14), the IC50 was 21 nM.
In the case of `CC(C)C[C@@H]1NC(=O)[C@H](Cc2c[nH]c3ccccc23)NC(=O)[C@H](CC(=O)O)NC(=O)[C@H](Cc2ccc(OCC(=O)O)cc2)NC(=O)[C@H](Cc2ccc(OCC(=O)O)cc2)NC(=O)CSC[C@@H](C(=O)NCCOCCOCC(=O)N[C@@H](CCN)C(=O)NCCCCCCCCCCC(=O)O)NC(=O)[C@H](CCCN)NC(=O)[C@H](C(C)C)NC(=O)[C@H](CC2CCCCC2)NC(=O)[C@H](CCN)NC(=O)[C@@H](CC(C)C)NC(=O)[C@H](C)N(C)C(=O)[C@H](C(C)C)NC(=O)[C@H](Cc2ccc(-c3ccccc3)cc2)NC1=O` [Example 2158] ({CH2CO}-Y(Carboxymethyl)Y(Carboxymethyl)DWL[Bip]V[NMeA][dL][Dab][Cha]V[Orn]C[AEEA][Dab][Aun]-OH; thioether N-14) it was 20 nM; in that of `CC(C)C[C@@H]1NC(=O)[C@H](Cc2c[nH]c3ccccc23)NC(=O)[C@H](CC(=O)O)NC(=O)[C@H](Cc2ccc(C(=O)O)cc2)NC(=O)[C@H](Cc2ccc(OCC(=O)O)cc2)NC(=O)CSC[C@@H](C(=O)N[C@@H](CCCCN)C(=O)NCCCCCCCCCCC(=O)O)NC(=O)[C@H](CCCN)NC(=O)[C@H](C(C)C)NC(=O)[C@H](CC2CCCCC2)NC(=O)[C@H](CCN)NC(=O)[C@@H](CC(C)C)NC(=O)[C@H](C)N(C)C(=O)[C@H](C(C)C)NC(=O)[C@H](Cc2ccc(-c3ccccc3)cc2)NC1=O` [Example 2159] ({CH2CO}-Y(Carboxymethyl)[Phe(4-COOH)]DWL[Bip]V[NMeA][dL][Dab][Cha]V[Orn]CK[Aun]-OH; thioether N-14), 17.8 nM; in that of `CC(C)C[C@H]1NC(=O)[C@H](C)N(C)C(=O)[C@H](C(C)C)NC(=O)[C@H](Cc2ccc(-c3ccccc3)cc2)NC(=O)[C@H](C(C)C)NC(=O)[C@H](Cc2c[nH]c3ccccc23)NC(=O)[C@H](CC(=O)O)NC(=O)[C@H](Cc2ccc(OCC(=O)O)cc2)NC(=O)[C@H](CCCNC(=N)N)NC(=O)CSC[C@@H](C(=O)NCC(=O)NCCOCCOCC(=O)N[C@@H](CCCN)C(=O)NCCCCCCCCCCCC(=O)O)NC(=O)[C@H](CCCN)NC(=O)[C@H](C(C)C)NC(=O)[C@H](CC2CCCCC2)NC(=O)[C@H](CCN)NC1=O` [Example 2160] ({CH2CO}-RY(Carboxymethyl)DWV[Bip]V[NMeA][dL][Dab][Cha]V[Orn]CG[AEEA][Orn][12Ado]-OH; thioether N-14), 12.2 nM.
Consider `CC(C)C[C@@H]1NC(=O)[C@H](Cc2c[nH]c3ccccc23)NC(=O)[C@H](CC(=O)O)NC(=O)[C@H](Cc2ccc(O)cc2)NC(=O)[C@H](Cc2ccncc2)NC(=O)CSC[C@@H](C(=O)N[C@@H](CCCN)C(=O)NCCOCCOCC(=O)NCCCCCCCCCCC(=O)O)NC(=O)[C@H](CCCN)NC(=O)[C@H](C(C)C)NC(=O)[C@H](CC2CCCCC2)NC(=O)[C@H](CCN)NC(=O)[C@@H](CC(C)C)NC(=O)[C@H](C)N(C)C(=O)[C@H](C(C)C)NC(=O)[C@H](Cc2ccc(-c3ccccc3)cc2)NC1=O` [Example 2161] ({CH2CO}-[4Pal]YDWL[Bip]V[NMeA][dL][Dab][Cha]V[Orn]C[Orn][AEEA][Aun]-OH; thioether N-14), for which the IC50 is 122 nM.
On to `CC(C)C[C@@H]1NC(=O)[C@H](Cc2c[nH]c3ccccc23)NC(=O)[C@H](CC(=O)O)NC(=O)[C@H](Cc2ccc(C(=O)O)cc2)NC(=O)[C@H](Cc2ccc(OCC(=O)O)cc2)NC(=O)CSC[C@@H](C(=O)NCC(=O)NCCOCCOCC(=O)N[C@@H](CCCN)C(=O)NCCCCCCCCCCC(=O)O)NC(=O)[C@H](CCCN)NC(=O)[C@H](C(C)C)NC(=O)[C@H](CC2CCCCC2)NC(=O)[C@H](CCN)NC(=O)[C@@H](CC(C)C)NC(=O)[C@H](C)N(C)C(=O)[C@H](C(C)C)NC(=O)[C@H](Cc2ccc(-c3ccccc3)cc2)NC1=O` [Example 2162] ({CH2CO}-Y(Carboxymethyl)[Phe(4-COOH)]DWL[Bip]V[NMeA][dL][Dab][Cha]V[Orn]CG[AEEA][Orn][Aun]-OH; thioether N-14), for which the IC50 amounted to 7.8 nM.
